Tests used:
[1] = biological target: C-C chemokine receptor type 5 (Homo sapiens, UniProt P51681); experiment: Inhibition of RANTES
[2] = system: Human immunodeficiency virus; experiment: Antiviral activity against HIV; assay type: functional, organism-based
[3] = (§1) Apparent permeability of the compound from apical to basolateral side in human Caco-2 cell membrane after 21 days; conditions: Caco-2, Papp
[4] = system: Caco-2; experiment: as §1; conditions: caco-2
[5] = biological target: Voltage-gated inwardly rectifying potassium channel KCNH2 (Homo sapiens, UniProt Q12809); experiment: Inhibition of human ERG
Voltage-gated inwardly rectifying potassium channel KCNH2, sequence (Q12809 whole entry): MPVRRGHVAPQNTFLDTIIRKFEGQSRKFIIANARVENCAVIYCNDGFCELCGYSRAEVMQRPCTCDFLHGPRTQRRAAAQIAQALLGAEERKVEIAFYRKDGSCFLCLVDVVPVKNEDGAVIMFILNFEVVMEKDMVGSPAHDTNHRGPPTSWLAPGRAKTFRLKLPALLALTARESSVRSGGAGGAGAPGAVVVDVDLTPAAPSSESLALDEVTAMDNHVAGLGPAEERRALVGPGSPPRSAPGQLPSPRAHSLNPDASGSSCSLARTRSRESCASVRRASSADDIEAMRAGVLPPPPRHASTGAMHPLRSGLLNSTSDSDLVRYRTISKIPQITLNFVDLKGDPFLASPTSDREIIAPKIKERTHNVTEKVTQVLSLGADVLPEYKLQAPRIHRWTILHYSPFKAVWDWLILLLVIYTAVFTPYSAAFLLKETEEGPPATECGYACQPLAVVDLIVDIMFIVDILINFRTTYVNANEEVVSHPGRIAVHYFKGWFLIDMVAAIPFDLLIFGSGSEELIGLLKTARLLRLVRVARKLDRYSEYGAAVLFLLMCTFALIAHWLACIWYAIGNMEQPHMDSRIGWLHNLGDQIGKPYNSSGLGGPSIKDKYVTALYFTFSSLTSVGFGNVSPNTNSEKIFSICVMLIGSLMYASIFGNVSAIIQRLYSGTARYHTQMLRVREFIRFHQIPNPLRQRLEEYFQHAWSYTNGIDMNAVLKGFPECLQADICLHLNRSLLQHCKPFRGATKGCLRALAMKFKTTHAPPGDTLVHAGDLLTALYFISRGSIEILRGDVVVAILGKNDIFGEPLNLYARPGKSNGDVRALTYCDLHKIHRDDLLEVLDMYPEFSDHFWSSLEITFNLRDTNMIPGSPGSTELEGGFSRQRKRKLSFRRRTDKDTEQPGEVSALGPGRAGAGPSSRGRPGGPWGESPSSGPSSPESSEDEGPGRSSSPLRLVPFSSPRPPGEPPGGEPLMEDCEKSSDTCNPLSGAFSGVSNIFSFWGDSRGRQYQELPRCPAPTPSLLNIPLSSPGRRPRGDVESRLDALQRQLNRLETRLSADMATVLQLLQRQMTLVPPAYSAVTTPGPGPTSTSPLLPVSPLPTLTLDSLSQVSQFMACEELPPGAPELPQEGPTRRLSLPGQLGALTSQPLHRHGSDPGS

[6] = Metabolic stability in rat liver microsomes assessed as intrinsic clearance; assay type: ADME, Microsome
[7] = Metabolic stability in dog liver microsomes assessed as intrinsic clearance; assay type: ADME, Canis lupus familiaris, Microsome
[8] = Metabolic stability in human liver microsomes assessed as intrinsic clearance; assay type: ADME, Microsome
[9] = system: Rattus norvegicus; experiment: Clearance in rat at 10 mg/kg, po and 1 mg/kg, iv; assay type: ADME, organism-based; conditions: in vivo
[10] = Oral bioavailability in rat at 10 mg/kg, po and 1 mg/kg, iv; assay type: ADME, organism-based; conditions: in vivo
[11] = Half life in rat at 1 mg/kg, iv; assay type: ADME, organism-based; parameters: dose 1 mg/kg, route intravenous; conditions: in vivo
[12] = Cmax in rat at 10 mg/kg, po and 1 mg/kg, iv; assay type: ADME, organism-based; conditions: in vivo
[13] = Oral bioavailability in dog at 5 mg/kg, po and 1 mg/kg, iv; assay type: ADME, organism-based, Canis lupus familiaris; conditions: in vivo
[14] = Clearance in dog at 5 mg/kg, po and 1 mg/kg, iv; assay type: ADME, organism-based, Canis lupus familiaris; conditions: in vivo
[15] = Half life in dog at 1 mg/kg, iv; assay type: ADME, organism-based, Canis lupus familiaris; parameters: dose 1 mg/kg, route intravenous; conditions: in vivo
[16] = Cmax in dog at 5 mg/kg, po and 1 mg/kg, iv; assay type: ADME, organism-based, Canis lupus familiaris; conditions: in vivo

C-C chemokine receptor type 5, sequence (P51681 whole entry): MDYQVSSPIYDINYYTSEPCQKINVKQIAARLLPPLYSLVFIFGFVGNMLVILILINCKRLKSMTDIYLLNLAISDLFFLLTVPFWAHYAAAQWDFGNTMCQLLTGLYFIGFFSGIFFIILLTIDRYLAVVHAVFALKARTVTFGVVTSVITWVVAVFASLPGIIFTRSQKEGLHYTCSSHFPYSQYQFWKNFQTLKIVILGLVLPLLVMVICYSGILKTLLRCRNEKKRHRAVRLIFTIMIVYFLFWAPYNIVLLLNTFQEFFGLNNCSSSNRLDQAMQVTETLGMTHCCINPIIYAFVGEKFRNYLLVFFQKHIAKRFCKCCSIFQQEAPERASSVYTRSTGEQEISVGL

| SMILES | IC50 [1] [µM] | IC50 ([2]; Human immunodeficiency virus 1) [µM] | also measured |
| --- | --- | --- | --- |
| Cc1ncnc(C)c1C(=O)N1C[C@H]2CN(CCC(c3ccccc3)C3CCN(S(=O)(=O)CC(F)(F)F)CC3)C[C@H]2C1 (stereo not given in full) | 0.048 | 0.207 |  |
| Cc1ncnc(C)c1C(=O)N1C[C@H]2CN(CCC(c3ccccc3)C3CCN(S(=O)(=O)C4CCCC4)CC3)C[C@H]2C1 (stereo not given in full) | 0.023 | 0.059 |  |
| Cc1ncnc(C)c1C(=O)N1C[C@H]2CN(CCC(c3cccc(F)c3)C3CCN(S(=O)(=O)c4ccccc4)CC3)C[C@H]2C1 (stereo not given in full) | 0.038 | 0.006 |  |
| Cc1ncnc(C)c1C(=O)N1C[C@H]2CN(CCC(c3ccccc3)C3CN(C(=O)C4CCCC4)C3)C[C@H]2C1 (stereo not given in full) | 0.207 |  |  |
| Cc1ncnc(C)c1C(=O)N1C[C@H]2CN(CCC(c3ccccc3)C3CN(C(=O)CC(C)C)C3)C[C@H]2C1 (stereo not given in full) | > 0.5 |  |  |
| Cc1ncnc(C)c1C(=O)N1C[C@H]2CN(CCC(c3ccccc3)C3CN(S(=O)(=O)C(C)C)C3)C[C@H]2C1 (stereo not given in full) | 0.023 | 0.1 |  |
| Cc1ncnc(C)c1C(=O)N1C[C@H]2CN(CCC(c3ccccc3)C3CN(S(=O)(=O)C4CC4)C3)C[C@H]2C1 (stereo not given in full) | 0.04 | 0.103 |  |
| Cc1ncnc(C)c1C(=O)N1C[C@H]2CN(CCC(c3cccc(F)c3)C3CN(S(=O)(=O)C4CC4)C3)C[C@H]2C1 (stereo not given in full) | 0.039 | 0.156 |  |
| Cc1ncnc(C)c1C(=O)N1C[C@H]2CN(CCC(c3ccccc3)C3CCN(C(=O)NC(C)C)CC3)C[C@H]2C1 (stereo not given in full) | > 0.5 |  |  |
| Cc1ncnc(C)c1C(=O)N1C[C@H]2CN(CCC(c3cc(F)cc(F)c3)C3CN(S(=O)(=O)C4CC4)C3)C[C@H]2C1 (stereo not given in full) | 0.035 | 0.09 |  |
| Cc1ncnc(C)c1C(=O)N1C[C@H]2CN(CCC(c3ccccc3)C3CCN(CC(F)(F)F)CC3)C[C@H]2C1 (stereo not given in full) | 0.017 | 0.064 |  |
| Cc1ncnc(C)c1C(=O)N1C[C@H]2CN(CCC(c3ccccc3)C3CN(S(C)(=O)=O)C3)C[C@H]2C1 (stereo not given in full) | 0.052 | > 0.625 |  |
| Cc1ncnc(C)c1C(=O)N1C[C@H]2CN(CCC(c3ccccc3)C3CCN(CC(F)F)CC3)C[C@H]2C1 (stereo not given in full) | 0.027 | 0.055 |  |
| Cc1ncnc(C)c1C(=O)N1C[C@H]2CN(CCC(c3ccccc3)C3CN(S(=O)(=O)C4CCCC4)C3)C[C@H]2C1 (stereo not given in full) | 0.022 | 0.031 | Papp A→B [3]: 1.4 ×10⁻⁶ cm/s |
| Cc1ncnc(C)c1C(=O)N1C[C@H]2CN(CCC(c3cccc(F)c3)C3CCN(CC(F)F)CC3)C[C@H]2C1 (stereo not given in full) | 0.035 | 0.014 |  |
| Cc1ncnc(C)c1C(=O)N1C[C@H]2CN(CCC(c3ccccc3)C3CCN(S(=O)(=O)C4CC4)CC3)C[C@H]2C1 (stereo not given in full) | 0.027 | 0.071 |  |

| SMILES | IC50 [1] [µM] | IC50 ([2]; Human immunodeficiency virus 1) [µM] | also measured |
| --- | --- | --- | --- |
| Cc1ncnc(C)c1C(=O)N1C[C@H]2CN(CCC(c3cc(F)cc(F)c3)C3CCN(CC(F)F)CC3)C[C@H]2C1 (stereo not given in full) | 0.025 | 0.02 |  |
| CCS(=O)(=O)N1CCC(C(CCN2C[C@@H]3CN(C(=O)c4c(C)ncnc4C)C[C@@H]3C2)c2ccccc2)CC1 (stereo not given in full) | 0.025 | 0.039 |  |
| COC(=O)N1CCC(C(CCN2C[C@@H]3CN(C(=O)c4c(C)ncnc4C)C[C@@H]3C2)c2ccccc2)CC1 (stereo not given in full) | 0.102 |  |  |
| Cc1ncnc(C)c1C(=O)N1C[C@H]2CN(CCC(c3ccccc3)C3CCN(S(=O)(=O)C(C)C)CC3)C[C@H]2C1 (stereo not given in full) | 0.047 | 0.048 |  |
| CCC(=O)N1CCC(C(CCN2C[C@@H]3CN(C(=O)c4c(C)ncnc4C)C[C@@H]3C2)c2ccccc2)CC1 (stereo not given in full) | 0.032 |  |  |
| Cc1cc(=O)oc(C)c1C(=O)N1C[C@H]2CN(CCC(c3ccccc3)C3CCN(S(C)(=O)=O)CC3)C[C@H]2C1 (stereo not given in full) | 0.027 | 0.037 |  |
| Cc1ncnc(C)c1C(=O)N1C[C@H]2CN(CCC(c3ccccc3)C3CCN(C(=O)C(C)C)CC3)C[C@H]2C1 (stereo not given in full) | 0.072 |  |  |
| Cc1cc(C#N)nc(C)c1C(=O)N1C[C@H]2CN(CCC(c3ccccc3)C3CCN(S(C)(=O)=O)CC3)C[C@H]2C1 (stereo not given in full) |  | 0.004 |  |
| Cc1ncnc(C)c1C(=O)N1C[C@H]2CN(CCC(c3ccccc3)C3CCN(C(=O)CC(C)C)CC3)C[C@H]2C1 (stereo not given in full) | 0.068 |  |  |
| Cc1ncnc(C)c1C(=O)N1C[C@H]2CN(CCC(c3ccccc3)C3CN(CC(F)(F)F)C3)C[C@H]2C1 (stereo not given in full) | > 0.5 |  |  |
| Cc1ncnc(C)c1C(=O)N1C[C@H]2CN(CCC(c3ccccc3)C3CCN(S(C)(=O)=O)CC3)C[C@H]2C1 (stereo in doubt; 34) | 0.034 |  | IC50 [2]: 0.043 µM; Papp A→B [3]: 0.87 ×10⁻⁶ cm/s |
| Cc1ncnc(C)c1C(=O)N1C[C@H]2CN(CCC(c3cccc(F)c3)C3CCN(S(C)(=O)=O)CC3)C[C@H]2C1 (stereo in doubt; 35) | 0.044 | 0.016 |  |
| Cc1ncnc(C)c1C(=O)N1C[C@H]2CN(CCC(c3ccccc3)C3CCN(S(C)(=O)=O)CC3)C[C@H]2C1 (stereo in doubt; 41) | 0.025 |  | IC50 [2]: 0.042 µM; Papp [4]: 0.5 ×10⁻⁶ cm/s |
| Cc1ncnc(C)c1C(=O)N1C[C@H]2CN(CCC(c3ccccc3)C3CCN(S(C)(=O)=O)CC3)C[C@H]2C1 (stereo in doubt; 42) | > 0.5 |  | IC50 [2]: > 5 µM |
| Cc1ncnc(C)c1C(=O)N1C[C@H]2CN(CCC(c3cccc(F)c3)C3CCN(S(C)(=O)=O)CC3)C[C@H]2C1 (stereo in doubt; 43) | 0.032 |  | IC50 [2]: 0.017 µM; Papp A→B [3]: 0.5 ×10⁻⁶ cm/s; IC20 [5]: 15.4 µM; microsomal CLint [6]: 40 µL/min/mg; clearance [7]: 18 µL/min/mg; microsomal CLint [8]: 60 µL/min/mg; clearance [9]: 40 mL/min/kg; bioavailability [10]: 6.6%; half-life [11]: 0.37 h; Cmax [12]: 110 ng/mL; bioavailability [13]: 96%; clearance [14]: 31 mL/min/kg; half-life [15]: 4 h; Cmax [16]: 1300 ng/mL |
| Cc1ncnc(C)c1C(=O)N1C[C@H]2CN(CCC(c3cccc(F)c3)C3CCN(S(C)(=O)=O)CC3)C[C@H]2C1 (stereo in doubt; 44) | > 0.5 |  |  |

Reference: ChEMBL document CHEMBL1268886, “Evaluation of amide replacements in CCR5 antagonists as a means to increase intrinsic permeability. Part 2: SAR optimization and pharmacokinetic profile of a homologous azacyle series” (Bioorg Med Chem Lett, 2010)
